From patent publication US9834566B2, “Pyrazolopyrimidine macrocycles as inhibitors of human immunodeficiency virus replication” (priority 2014, dated 2017)

Tested on: recombinant NL-RLuc virus (NL4-3 with Renilla Luciferase gene)
Assay: Inhibition of HIV replication (NL-RLuc luciferase reporter virus in MT-2 cells)
Type: cell-based
Settings: NL43, 120 h
Source text: Inhibition of HIV Replication:
A recombinant NL-RLuc proviral clone was constructed in which a section of the nef gene from NL4-3 was replaced with the Renilla Luciferase gene. This virus is fully infectious and can undergo multiple cycles of replication in cell culture. In addition, the luciferous reporter provides a simple and easy method for quantitating the extent of virus growth and consequently, the antiviral activity of test compounds. The plasmid pNLRLuc contains the proviral NL-Rluc DNA cloned into pUC18 at the PvuII site. The NL-RLuc virus was prepared by transfection of 293T cells with the plasmid pNLRLuc. Transfections were performed using the LipofectAMINE PLUS kit from Invitrogen (Carlsbad, Calif.) according to the manufacturer and the virus generated was titered in MT-2 cells. For susceptibility analyses, the titrated virus was used to infect MT-2 cells in the presence of compound, and after 5 days of incubation, cells were processed and quantitated for virus growth by the amount of expressed luciferase. Assay media was RPMI 1640 supplemented with 10% heat inactivated fetal bovine serum (FBS), 100 units/ml penicillin G/100 units/ml streptomycin, 10 mM HEPES buffer pH 7.55 and 2 mM L-glutamine. The results from at least 2 experiments were used to calculate the EC50 values. Luciferase was quantitated using the Dual Luciferase kit from Promega (Madison, Wis.). Susceptibility of viruses to compounds was determined by incubation in the presence of serial dilutions of the compound. The 50% effective concentration (EC50) was calculated by using the exponential form of the median effect equation where (Fa)=1/[1+(ED50/drug conc.)^m] (Johnson V A, Byington R T. Infectivity Assay. In Techniques in HIV Research. ed. Aldovini A, Walker B D. 71-76. New York: Stockton Press. 1990).

Structure (SMILES)	EC50 [nM]
Cc1nc2cc3nn2c(c1[C@H](OC(C)(C)C)C(=O)O)-c1ccc(cc1)OCCCCCCOc1cc(F)ccc1-c1cccc-3c1 [Example 1, (2S)-2-(tert-butoxy)-2-{18-fluoro-4-methyl-21,28-dioxa-5,7,8-triazahexacyclo [27.2.2.1^6,^9.1^10,^14.0^2,^7.0^15,^20]pentatriaconta-1(31),2,4,6(35),8,10(34),11,13, 15(20),16,18,29,32-tridecaen-3-yl}acetic acid]	397
Cc1nc2cc3nn2c(c1[C@H](OC(C)(C)C)C(=O)O)-c1ccc(cc1)OC/C=C/COc1cc(F)ccc1-c1cccc-3c1 [Example 2, (2S)-2-(tert-butoxy)-2-[(23E)-18-fluoro-4-methyl-21,26-dioxa-5,7,8-triazahexacyclo [25.2.2.1^6,^9.1^10,^14.0^2,^7.0^15,^20]tritriaconta-1(29),2,4,6(33),8,10(32),11,13, 15(20),16,18,23,27,30-tetradecaen-3-yl]acetic acid]	696
Cc1nc2cc3nn2c(c1[C@H](OC(C)(C)C)C(=O)O)-c1ccc(cc1)OCc1cccc(c1)COc1cc(F)ccc1-c1cccc-3c1 [Example 3, (2S)-2-(tert-butoxy)-2-{18-fluoro-4-methyl-21,29-dioxa-5,7,8-triazaheptacyclo [28.2.2.1^6,^9.1^10,^14.1^23,^27.0^2,^7.0^15,^20]heptatriaconta-1(32),2,4,6(37),8,10(36),11,13, 15(20),16,18,23(35),24,26,30,33-hexadecaen-3-yl}acetic acid]	55
Cc1nc2cc3nn2c(c1[C@H](OC(C)(C)C)C(=O)O)-c1ccc(cc1)OCC#CCOc1cc(F)ccc1-c1cccc-3c1 [Example 4, (2S)-2-(tert-butoxy)-2-{18-fluoro-4-methyl-21,26-dioxa-5,7,8-triazahexacyclo [25.2.2.1^6,^9.1^10,^14.0^2,^7.0^15,^20]tritriaconta-1(29),2,4,6(33),8,10(32),11,13, 15(20),16,18,27,30-tridecaen-23-yn-3-yl}acetic acid]	281
Cc1nc2cc3nn2c(c1[C@H](OC(C)(C)C)C(=O)O)-c1ccc(cc1)OCCOCCOc1cc(F)ccc1-c1cccc-3c1 [Example 5, (2S)-2-(tert-butoxy)-2-{18-fluoro-4-methyl-21,24,27-trioxa-5,7,8-triazahexacyclo [26.2.2.1^6,^9.1^10,^14.0^2,^7.0^15,^20]tetratriaconta-1(30),2,4,6(34),8,10(33),11,13, 15(20),16,18,28,31-tridecaen-3-yl}acetic acid]	309
Cc1nc2cc3nn2c(c1[C@H](OC(C)(C)C)C(=O)O)-c1ccc(c2ccccc12)OCc1cccc(c1)COc1cc(F)ccc1-c1cccc-3c1 [Example 6, (2S)-2-(tert-butoxy)-2-{18-fluoro-4-methyl-21,29-dioxa-5,7,8-triazaoctacyclo[28.6.2.1^6,9.1^10,14. 1^23,27.0^2,7.0^15,20.0^31,36]hentetraconta-1(37),2,4,6(41),8,10(40),11,13,15(20),16,18,23(39),24,26,30(38),31(36),32,34-octadecaen-3-yl}acetic acid]	20000
Cc1nc2cc3nn2c(c1[C@H](OC(C)(C)C)C(=O)O)-c1ccc(c2ccccc12)OCC#CCOc1cc(F)ccc1-c1cccc-3c1 [Example 7, (2S)-2-(tert-butoxy)-2-{18-fluoro-4-methyl-21,26-dioxa-5,7,8-triazaheptacyclo[25.6.2.1^6,9.1^10,14.0^2,7.0^15,20.0^28,33]heptatriaconta-1(34),2,4,6(37),8,10(36),11,13,15(20),16,18,27(35),28 (33),29,31-pentadecaen-23-yn-3-yl}acetic acid]	12100
C=C1COc2cc(ccc2C)-c2c([C@H](OC(C)(C)C)C(=O)O)c(C)nc3cc(nn23)-c2cccc(c2)-c2ccc(F)cc2OC1 [Example 8, (2S)-2-(tert-Butoxy)-2-{22-fluoro-7,13-dimethyl-17-methylidene-15,19-dioxa-3,4,6-triazahexacyclo [24.3.1.1^2,^5.1^10,^14.0^4,^9.0^20,^25]dotriaconta-1(30),2,5(32),6,8,10,12,14(31), 20(25),21,23,26,28-tridecaen-8-yl}acetic acid]	784
Cc1ccc2cc1OC/C=C/COc1cc(F)ccc1-c1cccc(c1)-c1cc3nc(C)c([C@H](OC(C)(C)C)C(=O)O)c-2n3n1 [Example 9, (2S)-2-(tert-Butoxy)-2-[(17E)-23-fluoro-7,13-dimethyl-15,20-dioxa-3,4,6-triazahexacyclo [25.3.1.1^2,^5.1^10,^14.0^4,^9.0^21,^26]tritriaconta-1(31),2,5(33),6,8,10,12,14(32), 17,21(26),22,24,27,29-tetradecaen-8-yl]acetic acid]	489
Cc1ccc2cc1OCc1cccc(n1)COc1cc(F)ccc1-c1cccc(c1)-c1cc3nc(C)c([C@H](OC(C)(C)C)C(=O)O)c-2n3n1 [Example 10, (2S)-2-(tert-Butoxy)-2-{26-fluoro-7,13-dimethyl-15,23-dioxa-3,4,6,35-tetraazaheptacyclo [28.3.1.1^2,^5.1^10,^14.0^17,^21.0^4,^9.0^24,^29]heptatriaconta-1(34),2,5(37),6,8,10,12,14(36), 17(35),18,20,24(29),25,27,30,32-hexadecaen-8-yl}acetic acid]	4200
Cc1ccc2cc1OC/C=C\COc1cc(F)ccc1-c1cccc(c1)-c1cc3nc(C)c([C@H](OC(C)(C)C)C(=O)O)c-2n3n1 [Example 11, (2S)-2-(tert-Butoxy)-2-[(17Z)-23-fluoro-7,13-dimethyl-15,20-dioxa-3,4,6-triazahexacyclo [25.3.1.1^2,^5.1^10,^14.0^4,^9.0^21,^26]tritriaconta-1(31),2,5(33),6,8,10,12,14(32), 17,21(26),22,24,27,29-tetradecaen-8-yl]acetic acid]	3310
Cc1ccc2cc1OCCC(F)(F)C(F)(F)CCOc1cc(F)ccc1-c1cccc(c1)-c1cc3nc(C)c([C@H](OC(C)(C)C)C(=O)O)c-2n3n1 [Example 12, (2S)-2-(tert-Butoxy)-2-{18,18,19,19,25-pentafluoro-7,13-dimethyl-15,22-dioxa-3,4,6-triazahexacyclo [27.3.1.1^2,^5.1^10,^14.0^4,^9.0^23,^28]pentatriaconta-1(33),2,5(35),6,8,10,12,14(34), 23(28),24,26,29,31-tridecaen-8-yl}acetic acid]	1670
Cc1ccc2cc1OCC#CCOc1cc(F)ccc1-c1cccc(c1)-c1cc3nc(C)c([C@H](OC(C)(C)C)C(=O)O)c-2n3n1 [Example 13, (2S)-2-(tert-Butoxy)-2-{23-fluoro-7,13-dimethyl-15,20-dioxa-3,4,6-triazahexacyclo [25.3.1.1^2,^5.1^10,^14.0^4,^9.0^21,^26]tritriaconta-1(31),2,5(33),6,8,10,12,14(32), 21(26),22,24,27,29-tridecaen-17-yn-8-yl}acetic acid]	288
Cc1ccc2cc1OCCN(C(C)(C)C)CCOc1cc(F)ccc1-c1cccc(c1)-c1cc3nc(C)c([C@H](OC(C)(C)C)C(=O)O)c-2n3n1 [Example 14, (2S)-2-(tert-Butoxy)-2-{18-tert-butyl-24-fluoro-7,13-dimethyl-15,21-dioxa-3,4,6,18-tetraazahexacyclo [26.3.1.1^2,^5.1^10,^14.0^4,^9.0^22,^27]tetratriaconta-1(32),2,5(34),6,8,10,12,14(33), 22(27),23,25,28,30-tridecaen-8-yl}acetic acid]	3250
